Assay results from patent US20070254950A1, “Oculoselective Drugs and Prodrugs” (Othera Pharmaceuticals, Inc., priority 2004, published 2007).

Key:
[1] = molecular target: Human recombinant adrenergic beta-1 (Homo sapiens, UniProt P08588); experiment: Human recombinant adrenergic beta-1 radioligand binding assay ([125I]Cyanopindolol); details: [125I]Cyanopindolol radioligand; read-out: Binding efficacy IC50
Method: Human recombinant adrenergic beta-1 Assays (Radioligand Binding) were conducted according to the procedure described by Feve, B., et al., Proc. Natl. Acad. Sci. USA, 91, 5677, 1994 using [[^125I]]Cyanopindolol as a radioligand. The results are expressed in IC50 (nM). (Table B)

albino rabbits [2] = experiment: Evaluation of ocular irritation; format: in vivo, rabbit
Method: Thirty albino rabbits were randomly divided into five groups. Each rabbit was dosed in the conjunctival sac of the right eye topically every ten minutes for one hour (six doses) with 50 μL of 0.0%, 0.3%, 0.5%, 1.0% and 2% of test compound, in 0.9% saline solution. The treated eye of each rabbit was examined for indications of ocular irritation, including swelling, discharge, redness, iritis of conjunctiva, eyelid, iris as well as opacity and involvement of the cornea. Individual scores were added to determine the degree of slight, moderate or severe irritation. Ocular observations were made before the treatment, one hour after the first and sixth instillation and then 1, 2, 3, 4 and 7 days, using a slit lamp.

albino rabbits [3] = experiment: Corneal anesthesia measurements (Cochet's esthesiometer); format: in vivo, rabbit
Method: The effect of a 50 μl single instillation of 0.3%, 0.5%, 1.0% and 2.0% solution of compound 7 on corneal anesthesia, after a single instillation in the conjunctival sac of the right eyes of albino rabbits (N=5) was measured using a Cochet's esthesiometer (nylon thread: 0.12 mm diameter, 10 mm long). Corneal anesthesia was evaluated by the number of corneal mechanical stimuli necessary to induce a blinking reflex. The effect of drug solutions was compared with sterile 0.9% NaCl treated animals (control group) and 0.4% oxybuprocaine (Novesine®).

[4] = Accelerated stability test of 0.25% solutions in acetate buffer, HPLC; format: physicochemical; details: for projected shelf-life of eye drop formulation: at room temperature, projected from the accelerated test
Method: An accelerated stability test was conducted on 0.25% solutions of compounds 6, 7, and 8 (Example 2) at 40° C. for 1, 2, 3, 4, 8 and 12 weeks and monitored for the disappearance of the prodrugs and appearance of the parent compound by HPLC analysis. The parent compound (referred to hereinafter as compound 4) has the formula: [drawing 47]
The respective compounds were dissolved in an acetate buffer, pH 3.5 (0.018% sodium acetate, 0.135% acetic acid, 0.9% sodium chloride in water for injection) to obtain 0.25% solution. The stability of the compounds was determined at 40° C. for 1, 2, 3, 4, 8, and 12 weeks. The concentration of the parent compound as well as the concentrations of the prodrug compounds 6, 7, and 8 at each time point by HPLC method.

[5] = Ocular bioavailability (aqueous humor levels by HPLC); format: in vivo; details: single instillation into conjunctival sac
Method: Three rabbits were used per time point. The […] test substance was administered in a single instillation using a micropipette into the conjunctival sac of the right and the left eyes. The rabbits were anesthetized with an intramuscular injection of Imalgène® 1000 (ketamine 32 mg/kg), and Rompun® (xylasine 7.5 mg/kg). They were then desanguinated by cardiac puncture and thereafter euthanized by an overdose of pentobarbital. Immediately after death, the eyes were micro-dissected to obtain: cornea (C), aqueous humor (AH), and iris-ciliary body (ICB). All samples were stored at −80° C. Only aqueous humor (AH) samples were analyzed by HPLC.

Human recombinant adrenergic beta-1, sequence (P08588 whole entry): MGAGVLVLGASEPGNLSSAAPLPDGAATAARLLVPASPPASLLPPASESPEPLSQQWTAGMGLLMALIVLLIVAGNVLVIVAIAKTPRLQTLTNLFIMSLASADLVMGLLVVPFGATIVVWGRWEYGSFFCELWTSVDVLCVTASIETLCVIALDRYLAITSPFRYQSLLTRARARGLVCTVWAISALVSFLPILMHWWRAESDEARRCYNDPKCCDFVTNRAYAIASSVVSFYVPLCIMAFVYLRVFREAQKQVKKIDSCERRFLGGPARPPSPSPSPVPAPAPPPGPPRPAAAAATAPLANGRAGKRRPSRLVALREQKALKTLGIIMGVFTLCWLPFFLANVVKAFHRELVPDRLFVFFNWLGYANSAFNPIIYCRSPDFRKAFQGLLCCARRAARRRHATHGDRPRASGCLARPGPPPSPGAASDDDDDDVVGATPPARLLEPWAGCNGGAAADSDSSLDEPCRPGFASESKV

IC50 [1]	SMILES	projected shelf-life of eye drop formulation [4]	level of the prodrug itself in aqueous humor [5]	also measured
39 nM	Cc1cc(O)c(O)cc1C(=O)OC[C@@H](O)CNC(C)(C)CO [Compound 15, (S)-4,5-dihydroxy-2-methyl-benzoic acid 2-hydroxy-3-(2-hydroxy-1,1-dimethyl-ethylamino)-propyl ester]	–	–	–
12 nM	Cc1cc(O)c(O)cc1C(=O)OC[C@@H](O)CNC(C)(C)COC(=O)C(C)(C)C [Compound 17, (S)-4,5-bis-dihydroxy-2-methyl-benzoic acid 3-[2-(2,2-dimethyl-propionyloxy)-1,1-dimethyl-ethylamino]-2-hydroxy-propyl ester]	–	–	–

Second part, the compound before the results:

SMILES	IC50 [1]	projected shelf-life of eye drop formulation [4]	level of the prodrug itself in aqueous humor [5]	also measured
Cc1cc(O)c(O)cc1C(=O)OC[C@@H](O)CNC(C)(C)COC(=O)C1CCOC1 (stereo partly drawn) [Compound 19, (S)-Tetrahydro-furan-3-carboxylic acid 2-[3-(4,5-dihydroxy-2-methyl-benzoyloxy)-2-hydroxy-propylamino]-2-methyl-propyl ester]	6.4 nM	–	–	–
Cc1cc(O)c(O)cc1C(=O)OCC(CNC(C)(C)CNC(=O)C1CCOC1)OC(=O)C(C)(C)C (stereo not shown) [Compound 6, reference compound]	–	2.6 months	below the detection limit	ocular irritation (albino rabbits [2]; at 1% concentration): moderate irritation; corneal sensitivity loss (albino rabbits [3]; at 1%): complete corneal sensitivity loss
Cc1cc(O)c(O)cc1C(=O)OCC(CNC(C)(C)CNC(=O)C1CCOC1)OC(=O)C1CC1(C)C (stereo not shown) [Compound 8, 4,5-dihydroxy-2-methyl-benzoic acid 2-(2,2-dimethyl-cyclopropanecarbonyloxy)-3-{1,1-dimethyl-2-[(tetrahydro-furan-3-carbonyl)-amino]-ethylamino}-propyl ester]	–	7.9 months	–	–
Cc1cc(O)c(O)cc1C(=O)OCC(CNC(C)(C)CNC(=O)C1CCOC1)OC(=O)C1(C)CC1 (stereo not shown) [Compound 7, 4,5-Dihydroxy-2-methyl-benzoic acid 3-{1,1-dimethyl-2-[(tetrahydro-furan-3-carbonyl)-amino]-ethylamino}-2-(1-methyl-cyclopropanecarbonyloxy)-propyl ester]	–	at least 18 months	also present in aqueous humor	ocular irritation (albino rabbits [2]; topical, six times every ten minutes at 0.3%, 0.5%, 1.0% and 2.0%, right conjunctival sac, vs 0.9% saline control): no ocular irritation; corneal sensitivity (local anesthetic activity) (albino rabbits [3]; single 50 μl instillation of 0.3%, 0.5%, 1.0% and 2.0% solution, compared to 0.4% oxybuprocaine): no corneal sensitivity (local anesthetic activity); relative stability (percent degradation time course, FIG. 1) ([4]; 0.25% solution, 40° C., pH 3.5, up to 12 weeks): most stable
